Measured values: US7378443B2, “Fatty acid analogues for the treatment of cancer” (Thia Medica, AS, priority 2000, dated 2008)
“Also recorded” adds a separate entry of the source.

Columns and labels:
Escherichia coli = assay: tests for mutagenic activity in bacterial strains; format: cell-based; conditions: 3-1000 mg/plate (TTA), 2-5000 mg/plate (TSA)
Method: (§1) Covance Laboratories Limited, England, has performed tests for mutagenic activity. […] Furthermore, TTA was not mutagenic when tested in mouse lymphoma cells […] L5178Y.
(§2) The concentration of the compounds tested in S. typhimurium and E. coli were 3-1000 mg/plate (TTA) 2-5000 mg/plate (TSA). In mouse lymphoma cells, L5178Y, the concentration was 2,5-50 mg/ml.

Salmonella typhimurium = assay: tests for mutagenic activity in bacterial strains; format: cell-based; conditions: 3-1000 mg/plate (TTA), 2-5000 mg/plate (TSA)
Method: as §1, §2

[1] = system: Chinese hamster ovary cells; assay: chromosomal aberrations in cultured Chinese hamster ovary cells; format: cell-based; conditions: doses tested 12-140 mg/ml
[2] = 28 days toxicity study in dogs (GLP); format: in vivo
From the text: A 28 days toxicity study in dogs according to GLP guidelines has been performed by Corning Hazleton (Europe), England. […] Some lipid related parameters were lowered in the animals given high dosages. This is consistent with the pharmacological activity of TTA.

[3] = system: mouse lymphoma cells, L5178Y; assay: mutagenicity test in mouse lymphoma cells; format: cell-based; conditions: 2,5-50 mg/ml
Method: as §1, §2

D-54MG cells = assay: cell migration out from attached spheroids; format: cell-based, human; conditions: D-54MG spheroids, 100 μM, 3 days of culture, DMEM; data not shown
Method: (§3) To compare the effect of the different fatty acid analogues on tumour spheroid growth, both D-54Mg and GaMg spheroids were transferred individually into 16 mm 24-well dishes base coated with 0.5 ml 0.75% DMEM-agar. D-54Mg and GaMg are human cell lines. The D-54Mg cell line was derived from a mixed anaplastic glioma and was kindly supplied by Dr. Darell D. Bigner, Duke University, Durham, N.C. The GaMg cell line was established in our laboratory and has been described in detail elsewhere (Bjerkvik et al.: Anticancer research 1998: vol 8, p 797-803). The spheroids were divided into 5 groups with 4 spheroids in each group. Four groups were treated with the different fatty acid analogues at a final fatty acid concentration of either 100 or 250 μM. […] The volume of the overlay suspension was 1.0 ml. The size of the spheroids were determined every second day be measuring two orthogonal diameters using an inverted phase contrast microscope with a calibrated reticle in the eye-piece. This was done during a 14-day period.
(§4) The effect of the fatty acid analogues on cell migration was studied by measuring the ability of cells to migrate out from spheroids that had attached to a plastic surface. […] The size of the outgrowth area was then determined by using a Kontron morphometry system (Kontron, Eching, Germany). […]

GaMg cells = assay: cell migration out from attached spheroids; format: cell-based, human; conditions: 100 μM, 3 days of culture, DMEM, data not shown
Method: as §3, §4

BT4Cn tumours = assay: survival of rats with intracranially implanted BT4Cn tumours; format: in vivo
Method: Mail Norwegian brown rats, BD IX, were used as described in example 5. The TTA was administered by oro-gastric intubation.
The tumour was implanted by stereotactical transplantation. The rats were anaesthetised with 0.4 ml Equithesin/100 g body weight. A skin incision was made, blood was removed by H2O2 and the scull was trephined using a dental drill.
The burr hole was localized 3.3 mm posterior to the coronal suture and 2.5 mm lateral to the sagittal suture.
Cells were harvested and counted as described above (Section 5.3), and then diluted in DPBS to a final concentration on 20.000 cells/μl. 2 μl cell suspension was injected with a Hamilton syringe with a cone-tipped 0.7 mm needle at a depth of 2.8 mm. The skin was closed with steel staples, and the animals were returned to their cages.

Row | Compound | induction of mutations (Escherichia coli) | induction of mutations (Salmonella typhimurium) | chromosomal aberrations [1] | lipid related parameters ([2]; animals given high dosages) | tolerability ([2]; oral administration, dose levels up to 500 mg/kg/day) | evidence of toxicity ([2]; oral, dose levels of 50 or 500 mg/day/kg) | mutagenicity [3] | migratory capacity (D-54MG cells) | migratory capacity (GaMg cells) | overall survival (BT4Cn tumours)
1 | CCCCCCCCCCCCCC[Se]CC(=O)O [TSA, tetradecylselenioacetic acid] | did not induce mutations; also recorded: not to be mutagenic | did not induce mutations; also recorded: not to be mutagenic | no aberrations were induced | – | – | – | – | – | – | –
2 | Tetradecylthioacetic acid [TTA] | did not induce mutations | did not induce mutations | – | lowered | generally well tolerated | no evidence of toxicity | not mutagenic | severely inhibited | severely inhibited | substantially increased
